Results on three compounds are retold here after PMC3401038 (ACS Chemical Biology, 2012).

The structures appear in SMILES notation.

Experiment [1] relates to M. tuberculosis H37Rv. It is filed as cell-based, Mycobacterium tuberculosis. Particulars: hypoxic shift down M. tuberculosis H37Rv, result in words.
For experiment [2], the system named is M. bovis BCGMtbNar. It is filed as cell-based, Mycobacterium bovis BCG.
Experiment [3] has as its system M. tuberculosis H37Rv. It is filed as cell-based, Mycobacterium tuberculosis. As to conditions: hypoxic shift down M. tuberculosis, 5 days treatment, result in words.

As to `COc1nc2ccc(Br)cc2cc1[C@@H](c1ccccc1)[C@@](O)(CCN(C)C)c1cccc2ccccc12` [TMC207], the “effect on ATP levels” value in experiment [1] was “reduction in ATP levels”. For the same compound, the “effect on ATP pool / intracellular ATP levels” value in experiment [2] is given as “significantly reduce the ATP pool”. In experiment [3], the “bacterial viability (CFU)” value was “reduction in bacterial viability”.

On to `Cc1ncc([N+](=O)[O-])n1CCO` [metronidazole], for which the “effect on ATP pool / intracellular ATP levels” value in experiment [2] is listed as “not affected”.

For `O=[N+]([O-])c1cn2c(n1)OC[C@@H](OCc1ccc(OC(F)(F)F)cc1)C2` [PA-824], the “effect on ATP levels” value in experiment [1] is reported as “reduction in ATP levels”. Besides, the “bacterial viability (CFU)” value in experiment [3] is reported as “reduction in bacterial viability”.
